# Measured values: publication PMC9267059, “Selective Inhibition of Murine Cytomegalovirus Viral Gene Expression by the Antiviral Peptide TAT-I24” (International Journal of Molecular Sciences, 2022)
# How the values were obtained:
# double-stranded DNA [1] = settings: cited from earlier work
# Description: To determine whether reduction of host-gene expression early after MCMV infection is related to the ability of the peptide to bind DNA, variants of TAT-I24 were generated with modifications of the TAT fusion partner (Figure 5A). The peptides were tested for their potency in inhibiting MCMV replication and their binding to DNA. […] Inhibition is independent of whether these are immediate-early, early or late genes, as they were all reduced to a similar extent, thereby excluding a specific effect of the peptide on a particular viral gene.
# [2] = test system: MCMV viral gene expression; assay: MCMV viral gene transcript levels by quantitative PCR relative to Gapdh; assay type: cell-based, murine cytomegalovirus; settings: NIH/3T3, MCMV MOI 1, 2 h post-infection, four independent experiments
# Description: NIH/3T3 fibroblasts were infected with MCMV expressing luciferase at low MOI (MOI 1) with the aid of centrifugal enhancement. Infections were performed either in the absence or presence of 10 µM TAT-I24. Cells were lysed after 30 min or 2-, 4-, 8- and 24-h post-infection. Total RNA was isolated and treated with DNase I to remove viral DNA before synthesis of the cDNA. Levels of viral transcripts were then analyzed by quantitative PCR and normalized to mRNA levels of the glyceraldehyde-3-phosphate dehydrogenase (Gapdh) housekeeping gene.
# NIH/3T3 cells were seeded at a density of 8 × 10^4 cells/well of a 24-well plate and allowed to attach overnight. On the next day, MCMV strain delm157-luc rep was adsorbed to cells (MOI 1) in the absence or presence of 10 µM TAT-I24 and centrifuged twice at 800× g for 15 min. Cells were then kept at 37 °C and lysed after the indicated time-points.
# [3] = test system: host-cell transcripts in NIH/3T3 cells infected with MCMV; assay: Host-cell transcript levels by quantitative PCR in MCMV-infected NIH/3T3 cells; assay type: cell-based; settings: MCMV MOI 1, 2 h post-infection, four independent experiments
# [4] = test system: mouse cytomegalovirus (CMV); settings: cited from earlier work
# double-stranded DNA [5] = assay: DNA binding assay (fluorescence reduction of SYBR Gold-stained plasmid DNA); settings: three independent experiments performed in duplicates
# Description: Binding of peptides to double-stranded DNA was determined by reduction of fluorescence from SYBR® Gold-stained plasmid DNA as described previously.
# MCMV = assay: Luciferase assay of MCMV replication (strain delm157-luc rep) in NIH/3T3 cells; assay type: cell-based, murine cytomegalovirus; settings: NIH/3T3 cells infected with MCMV, 72 h post-infection, at the concentrations tested, three independent experiments in duplicates
# Description: NIH/3T3 cells were seeded at a density of 2 × 10^4 cells/well of a 96-well plate and allowed to attach overnight. On the next day, cells were treated with various concentrations of peptides, or cidofovir either alone or in combination with increasing concentrations of TAT-I24 and infected with MCMV strain delm157-luc rep with centrifugal enhancement twice at 800× g for 15 min. After 72 h, cells were lysed and luciferase measured using luciferase assay system (Promega; Mannheim, Germany) using a GloMax Multi instrument (Promega; Mannheim, Germany).
# Curve fittings and statistics were calculated using GraphPad Prism 8 (GraphPad Software, San Diego, CA, USA). Bliss synergy scores were calculated using SynergyFinder 2.0 software (https://synergyfinder.fimm.fi (accessed on 25 June 2022)).
Sequence,"ie1 transcript levels, comparison of peptides [2]",DNA binding (fluorescence reduction of SYBR Gold-stained plasmid DNA) (double-stranded DNA [5]),antiviral activity (luciferase reporter gene expression) (MCMV),also measured
CLAFYACFC [I24],,,,binding to DNA (double-stranded DNA [1]): also binds DNA
"GRKKRRCLAFYACFC [TAT-M26, six N-terminal amino-acid residues of the TAT peptide fused to I24]",significant inhibitory effect,,,"Ccl5 expression, comparison of peptides [3]: significant reduction; Ccl7 expression, comparison of peptides [3]: significant reduction; Ifit1 expression, comparison of peptides [3]: significant reduction"
"GRKKRRQRRRPPQ [TAT, reference compound]",partial reduction,partial fluorescence reduction,,replication of mouse cytomegalovirus (MCMV) [4]: partial inhibitory effect
"RRRCLAFYACFC [TAT-M25, three amino-terminal arginine residues fused to I24]",,reduced DNA binding,lack of antiviral activity,
"RRRPPQCLAFYACFC [TAT-M24, six C-terminal residues of the TAT peptide fused to I24]",,reduced DNA binding,lack of antiviral activity,
